This note sets out measurements from patent US20250320213A1, “Nitrogen-Containing Heterocyclic Compounds” (Pfizer Inc., priority 2024, published 2025).

In this test the target is T1, STAT6 (Homo sapiens, UniProt P42226).
T1 construct: stably transfected HaCaT keratinocyte cell line, which expresses NanoLuc luciferase reporter gene under the transcriptional control of the STAT6 responsive promoter; endogenous in cells; host or cells: HaCaT keratinocyte reporter cell line (stably transfected with a NanoLuc reporter)
T1 sequence (P42226 1-847): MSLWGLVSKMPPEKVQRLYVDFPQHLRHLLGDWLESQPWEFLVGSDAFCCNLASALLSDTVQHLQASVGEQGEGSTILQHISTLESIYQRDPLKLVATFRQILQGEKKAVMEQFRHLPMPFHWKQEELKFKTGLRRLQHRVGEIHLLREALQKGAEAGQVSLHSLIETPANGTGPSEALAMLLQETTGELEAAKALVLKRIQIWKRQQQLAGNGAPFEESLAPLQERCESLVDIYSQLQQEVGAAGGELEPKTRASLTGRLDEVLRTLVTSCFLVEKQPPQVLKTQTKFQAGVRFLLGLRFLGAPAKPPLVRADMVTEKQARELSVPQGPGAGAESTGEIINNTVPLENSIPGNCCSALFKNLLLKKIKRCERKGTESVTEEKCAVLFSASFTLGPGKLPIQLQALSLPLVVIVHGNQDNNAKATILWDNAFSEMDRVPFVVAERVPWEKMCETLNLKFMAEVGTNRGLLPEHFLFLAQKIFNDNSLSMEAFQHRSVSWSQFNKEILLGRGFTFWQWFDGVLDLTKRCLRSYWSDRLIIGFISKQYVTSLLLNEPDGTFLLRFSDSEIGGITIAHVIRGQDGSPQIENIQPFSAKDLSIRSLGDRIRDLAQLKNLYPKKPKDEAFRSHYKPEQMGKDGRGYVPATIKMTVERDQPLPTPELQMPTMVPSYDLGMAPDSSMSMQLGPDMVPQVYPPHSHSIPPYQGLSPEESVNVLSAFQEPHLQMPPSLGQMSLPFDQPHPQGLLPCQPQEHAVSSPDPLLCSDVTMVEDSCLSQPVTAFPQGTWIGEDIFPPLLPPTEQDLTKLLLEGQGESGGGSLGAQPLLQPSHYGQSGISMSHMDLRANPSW
As to the kind of experiment: STAT6 Reporter Luciferase Assay (IL-13 stimulated HaCaT keratinocyte NanoLuc reporter cells). In kind it is cell-based. The note with it: IL-13 stimulated HaCaT STAT6 NanoLuc reporter cells; read-out: Reporter EC50. The procedure, abridged: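 Compounds were tested as 11-point, 4-fold series in duplicate, applied for 2 h at 37 °C in low-serum (2% FBS) DMEM. The cells were a stable HaCaT line with NanoLuc under a STAT6-responsive IL-13Ra2 promoter. After 4 h with 0.12 nM IL-13, Nano-Glo luminescence was measured.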
Take `CC(C)n1nc(C(=O)NCc2ccc(NC(=O)N3CCN(C)CC3)cc2)c2c1[C@@H](C)CN(c1ccc(-c3nncn3C3CC3)cn1)C2` [Example 655, (S)-5-(5-(4-cyclopropyl-4H-1,2,4-triazol-3-yl)pyridin-2-yl)-1-isopropyl-7-methyl-N-(4-(4-methylpiperazine-1-carboxamido)benzyl)-4,5,6,7-tetrahydro-1H-pyrazolo[4,3-c]pyridine-3-carboxamide]: the EC50 worked out at 2 nM. In the case of `CC(C)n1nc(C(=O)NCc2ccc(NC(=O)N(C)C)cc2)c2c1CCN(c1ccc(C(=O)N3CCC4(COC4)C3)cn1)C2` [Example 228, 5-(5-(2-oxa-6-azaspiro[3.4]octane-6-carbonyl)pyridin-2-yl)-N-(4-(3,3-dimethylureido)benzyl)-1-isopropyl-4,5,6,7-tetrahydro-1H-pyrazolo[4,3-c]pyridine-3-carboxamide], the EC50 was 116 nM.

With `CCn1nc(C(=O)NCc2ccc(NC(=O)N3CCN(C)CC3)cc2)c2c1C(C(F)(F)F)CN(c1ccc(C(=O)N(C)C)cn1)C2` (single isomer, unassigned) [Example 695, rel-(R or S)-5-(5-(dimethylcarbamoyl)pyridin-2-yl)-1-ethyl-N-(4-(4-methylpiperazine-1-carboxamido)benzyl)-7-(trifluoromethyl)-4,5,6,7-tetrahydro-1H-pyrazolo[4,3-c]pyridine-3-carboxamide], the EC50 came out at 32 nM. Next, `CC(C)n1nc(C(=O)NCc2ccc(NC(=O)N(C)C)cc2)c2c1CCN(c1ccc(C(=O)N3CCCC3CO)cn1)C2` (racemic) [Example 208, rac-(R)-N-(4-(3,3-dimethylureido)benzyl)-5-(5-(2-(hydroxymethyl)pyrrolidine-1-carbonyl)pyridin-2-yl)-1-isopropyl-4,5,6,7-tetrahydro-1H-pyrazolo[4,3-c]pyridine-3-carboxamide]: 535 nM; `COCC1(N)CCN(C(=O)Nc2ccc(CNC(=O)c3nn(C(C)C)c4c3CN(c3ccc(C(=O)N(C)C)cc3)C[C@@H]4C)cc2)C1` (single isomer, unassigned) [Example 673, (S)-N-(4-((R*)-3-amino-3-(methoxymethyl)pyrrolidine-1-carboxamido)benzyl)-5-(4-(dimethylcarbamoyl)phenyl)-1-isopropyl-7-methyl-4,5,6,7-tetrahydro-1H-pyrazolo[4,3-c]pyridine-3-carboxamide]: 2 nM; `Cc1cc(C)c2c(n1)CN(C(=O)c1ccc(N3CCc4c(c(C(=O)NCc5ccc(NC(=O)N(C)C)cc5)nn4C(C)C)C3)nc1)C2` [Example 368, 5-(5-(2,4-dimethyl-6,7-dihydro-5H-pyrrolo[3,4-b]pyridine-6-carbonyl)pyridin-2-yl)-N-(4-(3,3-dimethylureido)benzyl)-1-isopropyl-4,5,6,7-tetrahydro-1H-pyrazolo[4,3-c]pyridine-3-carboxamide]: 5 nM.

Regarding `CC(C)n1nc(C(=O)NCc2ccc(NC(=O)N3CCC[C@@H](N(C)C)C3)c(F)c2)c2c1[C@@H](C)CN(c1ccc(C(=O)N(C)C)cc1)C2` [Example 682, (S)-N-(4-((R)-3-(dimethylamino)piperidine-1-carboxamido)-3-fluorobenzyl)-5-(4-(dimethylcarbamoyl)phenyl)-1-isopropyl-7-methyl-4,5,6,7-tetrahydro-1H-pyrazolo[4,3-c]pyridine-3-carboxamide], the EC50 worked out at 4 nM. Next, `CC(C)n1nc(C(=O)NCc2ccc(NC(=O)N3CC[C@H](N(C)C)C3)cc2)c2c1[C@@H](C)CN(c1ccc(C(=O)N(C)C)cc1)C2` [Example 747, (S)-N-(4-((S)-3-(dimethylamino)pyrrolidine-1-carboxamido)benzyl)-5-(4-(dimethylcarbamoyl)phenyl)-1-isopropyl-7-methyl-4,5,6,7-tetrahydro-1H-pyrazolo[4,3-c]pyridine-3-carboxamide]: 1 nM; `CNC(=O)[C@@H]1CCCN1C(=O)c1ccc(N2CCc3c(c(C(=O)NCc4ccc(NC(=O)N(C)C)cc4)nn3C(C)C)C2)nc1` [Example 222, (S)-N-(4-(3,3-dimethylureido)benzyl)-1-isopropyl-5-(5-(2-(methylcarbamoyl)pyrrolidine-1-carbonyl)pyridin-2-yl)-4,5,6,7-tetrahydro-1H-pyrazolo[4,3-c]pyridine-3-carboxamide]: 1480 nM. Next, `Cc1nc2n(n1)CCN(C(=O)c1ccc(N3CCc4c(c(C(=O)NCc5ccc(NC(=O)N(C)C)cc5)nn4C(C)C)C3)nc1)C2` [Example 413, N-(4-(3,3-dimethylureido)benzyl)-1-isopropyl-5-(5-(2-methyl-5,6,7,8-tetrahydro-[1,2,4]triazolo[1,5-a]pyrazine-7-carbonyl)pyridin-2-yl)-4,5,6,7-tetrahydro-1H-pyrazolo[4,3-c]pyridine-3-carboxamide]: 82 nM; `CC(C)n1nc(C(=O)NCc2ccc(NC(=O)N(C)C)cc2)c2c1CCN(c1ccc(C(=O)N3CC(=O)N[C@H](C)C3)cn1)C2` [Example 325, (R)-N-(4-(3,3-dimethylureido)benzyl)-1-isopropyl-5-(5-(3-methyl-5-oxopiperazine-1-carbonyl)pyridin-2-yl)-4,5,6,7-tetrahydro-1H-pyrazolo[4,3-c]pyridine-3-carboxamide]: 710 nM; `Cc1cnc2c(c1)CN(C(=O)c1ccc(N3CCc4c(c(C(=O)NCc5ccc(NC(=O)N(C)C)cc5)nn4C(C)C)C3)nc1)CC2` [Example 410, N-(4-(3,3-dimethylureido)benzyl)-1-isopropyl-5-(5-(3-methyl-5,6,7,8-tetrahydro-1,6-naphthyridine-6-carbonyl)pyridin-2-yl)-4,5,6,7-tetrahydro-1H-pyrazolo[4,3-c]pyridine-3-carboxamide]: 15 nM. Consider `CC(C)n1nc(C(=O)NCc2ccc(NC(=O)N(C)C)cc2)c2c1CCN(c1ccc(C(=O)N3CCCNC(=O)C3)cn1)C2` [Example 221, N-(4-(3,3-dimethylureido)benzyl)-1-isopropyl-5-(5-(3-oxo-1,4-diazepane-1-carbonyl)pyridin-2-yl)-4,5,6,7-tetrahydro-1H-pyrazolo[4,3-c]pyridine-3-carboxamide], for which the EC50 turned out to be 227 nM. In the case of `CC(C)n1nc(C(=O)NCc2ccc(NC(=O)N3CCN4CCC[C@@H]4C3)c(F)c2)c2c1[C@@H](C)CN(c1ccc(C(=O)N(C)C)cn1)C2` [Example 690, (S)-5-(5-(dimethylcarbamoyl)pyridin-2-yl)-N-(3-fluoro-4-((R)-octahydropyrrolo[1,2-a]lpyrazine-2-carboxamido)benzyl)-1-isopropyl-7-methyl-4,5,6,7-tetrahydro-1H-pyrazolo[4,3-c]pyridine-3-carboxamide], the EC50 amounted to 1 nM.

With `CC(C)n1nc(C(=O)NCc2ccc(NC(=O)N3CCN(C)[C@@H](C)C3)cc2)c2c1[C@@H](C)CN(c1ccc(C(=O)N(C)C)cc1)C2` [Example 735, (S)-5-(4-(dimethylcarbamoyl)phenyl)-N-(4-((S)-3,4-dimethylpiperazine-1-carboxamido)benzyl)-1-isopropyl-7-methyl-4,5,6,7-tetrahydro-1H-pyrazolo[4,3-c]pyridine-3-carboxamide], the EC50 amounted to 1 nM. On to `CC(C)n1nc(C(=O)NCc2ccc(NC(=O)N(C)CCC(=O)O)c(F)c2)c2c1[C@@H](C)CN(c1ccc(C(=O)N(C)C)cc1)C2` [Example 733, (S)-3-(3-(4-((5-(4-(dimethylcarbamoyl)phenyl)-1-isopropyl-7-methyl-4,5,6,7-tetrahydro-1H-pyrazolo[4,3-c]pyridine-3-carboxamido)methyl)-2-fluorophenyl)-1-methylureido)propanoic acid], for which the EC50 came out at 342 nM. Next, `COc1nc(N2CCc3c(c(C(=O)NCc4ccc(NC(=O)N(C)C)cc4)nn3C(C)C)C2)ccc1[C@]1(C)CNC(=O)C1` [Example 202, (R)-N-(4-(3,3-dimethylureido)benzyl)-1-isopropyl-5-(6-methoxy-5-(3-methyl-5-oxopyrrolidin-3-yl)pyridin-2-yl)-4,5,6,7-tetrahydro-1H-pyrazolo[4,3-c]pyridine-3-carboxamide]: 8080 nM.

As to `CC(C)n1nc(C(=O)NCc2ccc(NC(=O)N3CC(C)(N(C)C)C3)c(F)c2)c2c1[C@@H](C)CN(c1ccc(C(=O)N(C)C)cc1)C2` [Example 659, (S)-N-(4-(3-(dimethylamino)-3-methylazetidine-1-carboxamido)-3-fluorobenzyl)-5-(4-(dimethylcarbamoyl)phenyl)-1-isopropyl-7-methyl-4,5,6,7-tetrahydro-1H-pyrazolo[4,3-c]pyridine-3-carboxamide], the EC50 stood at 8 nM.

By EC50 is commonly meant the concentration at which the effect is half-maximal.
